# Assay results reported in ChEMBL document CHEMBL5727585, “Carboxylic acid URAT1 inhibitor containing diarylmethane structure, preparation method and use thereof” (2020).
# Biological target: T1, Solute carrier family 22 member 12 (Homo sapiens, UniProt Q96S37)
# T1 sequence (Q96S37 whole entry): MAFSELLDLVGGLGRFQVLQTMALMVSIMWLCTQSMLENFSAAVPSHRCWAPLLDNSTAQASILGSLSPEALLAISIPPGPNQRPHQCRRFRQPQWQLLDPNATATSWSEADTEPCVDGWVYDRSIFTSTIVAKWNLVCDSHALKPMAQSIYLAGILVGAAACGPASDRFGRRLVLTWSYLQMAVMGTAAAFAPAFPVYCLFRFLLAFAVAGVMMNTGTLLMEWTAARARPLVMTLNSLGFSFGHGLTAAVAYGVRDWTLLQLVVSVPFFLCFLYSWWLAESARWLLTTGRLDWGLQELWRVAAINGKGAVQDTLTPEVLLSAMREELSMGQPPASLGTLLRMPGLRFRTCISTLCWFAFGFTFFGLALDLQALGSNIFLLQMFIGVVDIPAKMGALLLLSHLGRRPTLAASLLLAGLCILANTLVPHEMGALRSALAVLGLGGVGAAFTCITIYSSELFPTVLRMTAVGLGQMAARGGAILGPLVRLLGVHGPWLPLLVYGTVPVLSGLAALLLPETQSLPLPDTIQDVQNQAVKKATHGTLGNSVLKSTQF
# Assay: IC50 for Inhibition of the Test Compounds on URAT1: After trypsin digestion, the expression cells (HEK293) stably expressing URAT1 gene and mock cells were all inoculated into lysine-coated 24-well culture plates, with the cell inoculation density being 1×10^5 cells/well, and cultured in incubator at 37° C., 5% CO2 and saturated humidity for 2 days. The culture fluid in the culture plate was removed, and the cultured cells were washed twice with DPBS and subjected to warm bath in DPBS buffer solution at 37° C. for 10 min, and then a solution (500 μL) containing radioactive labeled probe substrate ([8-14C] uric acid) and 10 μM test compound (or blank) was used to substitute for DPBS, with the concentration of [8-14C] uric acid being 30 μM and the radiation intensity per well being 0.867 μCi. After 2 min, the reaction was terminated with ice-bathed DPBS buffer solution and washing was carried out for three times. Then 0.1 mol/L NaOH (500 μL) was added into each well to lyse the cells, the lysate was extracted into a scintillation vial and a scintillation fluid (Aquasol-2, 3 mL) was added, and the intensity of radioactivity in the sample was measured using a Tri-Carb 2910TR liquid scintillation analyzer (PerkinElmer, Waltham, USA). […] […]
row,Structure (SMILES),IC50 [µM]
1,CC(C)(Sc1nnc(Br)n1-c1ccc(C2CC2)c2ccccc12)C(=O)O,2.13
2,O=C(O)CCc1nnc(Br)n1-c1ccc(C2CC2)c2ccccc12,1.81
